Laboratory results taken from patent US11976083B2, “Inhibitors of peptidylarginine deiminases” (Gilead Sciences, Inc., priority 2020, dated 2024).

What follows are compounds tested against T1, human PAD4 (Homo sapiens, UniProt Q9UM07) (assay: In vitro PAD4 BAEE biochemical assay). Details: BAEE substrate 3 mM, 5 nM PAD4, 2 mM calcium chloride; geometric mean of multiple experiments.
T1 construct: human PAD4 (NM_012387), A2-P663, was PCR amplified; His-SUMO (N, cleaved yes); made in house; host or cells: E. coli BL21(DE3)
T1 sequence (Q9UM07 2-663): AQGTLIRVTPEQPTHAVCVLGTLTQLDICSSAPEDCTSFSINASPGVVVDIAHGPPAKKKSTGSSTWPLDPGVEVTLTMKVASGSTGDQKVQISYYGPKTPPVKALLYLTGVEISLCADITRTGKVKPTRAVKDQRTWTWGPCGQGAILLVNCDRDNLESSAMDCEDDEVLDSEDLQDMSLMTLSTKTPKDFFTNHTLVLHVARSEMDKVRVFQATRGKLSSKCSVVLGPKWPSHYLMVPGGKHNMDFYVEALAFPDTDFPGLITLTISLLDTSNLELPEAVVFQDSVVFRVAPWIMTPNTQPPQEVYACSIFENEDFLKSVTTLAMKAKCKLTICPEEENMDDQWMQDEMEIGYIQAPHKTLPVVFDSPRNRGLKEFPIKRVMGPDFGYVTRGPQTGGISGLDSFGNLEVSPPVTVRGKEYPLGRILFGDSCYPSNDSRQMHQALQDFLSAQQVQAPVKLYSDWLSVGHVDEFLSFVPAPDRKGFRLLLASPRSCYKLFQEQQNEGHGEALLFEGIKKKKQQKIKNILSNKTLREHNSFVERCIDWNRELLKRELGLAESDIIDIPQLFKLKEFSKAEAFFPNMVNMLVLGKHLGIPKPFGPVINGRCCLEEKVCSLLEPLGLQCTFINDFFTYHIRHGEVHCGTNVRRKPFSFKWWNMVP
In short: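 Ammonia produced by BAEE deimination (3 mM substrate, 2 h, 25 °C) was read as fluorescent isoindole after o-phthalaldehyde/DTT derivatization, ex 405 nm/em 535 nm. Human PAD4 at 5 nM final, 2 mM calcium, pH 7.6 MOPS; compound preincubated 30 min. IC50s, normalized to BB-Cl-Amidine and DMSO controls, were geometric-mean averaged.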

Q: With `C[C@H]1NC(=O)[C@@]2(C)C[C@@H]2CCCCCn2c(-c3nc4cc(C(=O)N[C@H]5CNCC[C@@H]5F)c(F)cc4n3C3CC3)cc3ccc1nc32` [Example 545, 1-cyclopropyl-2-[(2~ {R},5~{S},7~{S})-2,5-dimethyl-4-oxo-3,13,19-triazatetracyclo[11.5.2.0^ {5,7}.0^{16,20}]icosa-1(19),14,16(20), 17-tetraen-14-yl]-6-fluoro-~{N}-[(3~ {S},4~{S})-4-fluoro-3-piperidyl]benzimidazole-5-carboxamide] as the compound, how does the IC50 read?
A: The IC50 was 0.056 µM.

Q: `C[C@H]1NC(=O)c2nn(C)nc2CCCCCn2c(-c3nc4cc(C(=O)N[C@H]5CNCC[C@@H]5F)c(F)cc4n3C)cc3ccc1nc32` [Example 546, 2-[(2~{R})-2,7-dimethyl-4-oxo-3,6,7,8,15,21-hexazatetracyclo[13.5.2.0^ {5,9}.0^{18,22}]docosa-1(21),5,8,16,18(22), 19-hexaen-16-yl]-6-fluoro-~{N}-[(3~{S},4~{S})-4-fluoro-3-piperidyl]-1-methyl-benzimidazole-5-carboxamide] was tested. Which IC50 did it give?
A: The IC50 was 0.059 µM.

Q: How did the IC50 turn out when `C[C@H]1NC(=O)[C@H]2C[C@@H]2C/C=C/C(F)(F)Cn2c(-c3nc4cc(C(=O)N[C@H]5CNCC[C@@H]5F)c(F)c(F)c4n3C)cc3ccc1nc32` [Example 547, 2-[(2~{R},5~{S},7~ {S},9~{E})-11,11-difluoro-2-methyl-4-oxo-3,13,19-triazatetracyclo [11.5.2.0^{5,7}.0^{16,20}]icosa-1(19),9,14,16(20), 17-pentaen-14-yl]-6,7-difluoro-~ {N}-[(3~{S},4~{S})-4-fluoro-3-piperidyl]-1-methyl-benzimidazole-5-carboxamide] was run?
A: Its IC50 is 0.05 µM.

Q: `C[C@H]1NC(=O)[C@@]2(C)C[C@@H]2CCCCCn2c(-c3nc4cc(C(=O)N[C@H]5CNCC[C@@H]5F)c(F)cc4n3C)cc3ccc1nc32` [Example 548, 2-[(2~{R},5~{S},7~ {S})-2,5-dimethyl-4-oxo-3,13,19-triazatetracyclo[11.5.2.0^ {5,7}.0^{16,20}]icosa-1(19),14,16(20),17-tetraen-14-yl]-6-fluoro-~{N}-[(3~{S},4~{S})-4-fluoro-3-piperidyl]-1-methyl-benzimidazole-5-carboxamide] was tested. Which IC50 did it give?
A: Its IC50 is 0.056 µM.

Q: How did the IC50 turn out when `C[C@H]1NC(=O)[C@@]2(C)C[C@@H]2CCCC(F)(F)Cn2c(-c3nc4cc(C(=O)N[C@H]5CNCC[C@@H]5F)c(F)cc4n3C)cc3ccc1nc32` [Example 549, 2-[(2~{R},5~{S},7~ {S})-11,11-difluoro-2,5-dimethyl-4-oxo-3,13,19-triazatetracyclo [11.5.2.0^{5,7).0^ {16,20}]icosa-1(19), 14,16(20),17-tetraen-14-yl]-6-fluoro-~{N}-[(3~ {S},4~{S})-4-fluoro-3-piperidyl]-1-methyl-benzimidazole-5-carboxamide] was run?
A: Its IC50 is 0.129 µM.

Q: `Cc1cc2c(cc1C(=O)N[C@H]1CNCC[C@@H]1F)nc(-c1cc3ccc4nc3n1CC(F)(F)/C=C/C[C@H]1C[C@@H]1C(=O)N[C@@H]4C)n2C` [Example 550, 2-[(2~{R},5~{S},7~ {S},9~{E})-11,11-difluoro-2-methyl-4-oxo-3,13,19-triazatetracyclo [11.5.2.0^{5,7}.0^{16,20}]icosa-1(19),9,14,16(20), 17-pentaen-14-yl]-~{N}-[(3~{S},4~{S})-4-fluoro-3-piperidyl]-1,6-dimethyl-benzimidazole-5-carboxamide] was tested. Which IC50 did it give?
A: Its IC50 is 0.06 µM.

Q: How did the IC50 turn out when `Cc1cc2c(cc1C(=O)N[C@H]1CNCC[C@@H]1F)nc(-c1cc3ccc4nc3n1CC(F)(F)CCC[C@@H]1C[C@H]1C(=O)N[C@@H]4C)n2C` [Example 551, 2-[(2~{R},5~{R},7~ {R})-11,11-difluoro-2-methyl-4-oxo-3,13,19-triazatetracyclo[11.5.2.0^ {5,7).0^{16,20}]icosa-1(19),14,16(20),17-tetraen-14-yl]-~{N}-[(3~ {S},4~{S})-4-fluoro-3-piperidyl]-1,6-dimethyl-benzimidazole-5-carboxamide] was run?
A: Its IC50 is 0.043 µM.

Q: How did the IC50 turn out when `C[C@H]1NC(=O)[C@@]2(C)C[C@@H]2C/C=C/C(F)(F)Cn2c(-c3nc4cc(C(=O)N[C@H]5CNCC[C@@H]5F)c(F)cc4n3C)cc3ccc1nc32` [Example 552, 2-[(2~{R},5~{S},7~{S}, 9~{E})-11,11-difluoro-2,5-dimethyl-4-oxo-3,13,19-triazatetracyclo[11.5.2.0^ {5,7}.0^{16,20}]icosa-1(19),9,14,16(20), 17-pentaen-14-yl]-6-fluoro-~{N}-[(3~{S},4~ {S})-4-fluoro-3-piperidyl]-1-methyl-benzimidazole-5-carboxamide] was run?
A: Its IC50 is 0.061 µM.

Q: `C[C@H]1NC(=O)[C@]2(C)C[C@H]2CCCC(F)(F)Cn2c(-c3nc4cc(C(=O)N[C@H]5CNCC[C@@H]5F)c(F)cc4n3C)cc3ccc1nc32` [Example 553, 2-[(2~{R},5~{R},7~ {R})-11,11-difluoro-2,5-dimethyl-4-oxo-3,13,19-triazatetracyclo [11.5.2.0^{5,7}.0^ {16,20}]icosa-1(19),14, 16(20),17-tetraen-14-yl]-6-fluoro-~{N}-[(3~{S}, 4~{S})-4-fluoro-3-piperidyl]-1-methyl-benzimidazole-5-carboxamide] was tested. Which IC50 did it give?
A: The IC50 was 0.047 µM.

Q: For `C[C@H]1NC(=O)[C@]2(C)C[C@H]2CCCC(F)(F)Cn2c(-c3nc4cc(C(=O)N5[C@H]6CC[C@@H]5[C@H](N)C6)c(F)cc4n3C)cc3ccc1nc32` [Example 554, (2~{R},5~{R},7~ {R})-14-[5-[(1~{R},2~ {R},4~{S})-2-amino-7-azabicyclo[2.2.1]heptane-7-carbonyl]-6-fluoro-1-methyl-benzimidazol-2-yl]-11,11-difluoro-2,5-dimethyl-3,13,19-triazatetracyclo[11.5.2.0^ {5,7}.0^{16,20}]icosa-1(19), 14,16(20),17-tetraen-4-one], which IC50 is on record?
A: Its IC50 is 0.034 µM.

Q: With `C[C@H]1NC(=O)C(C)(C)CCCCCCn2c(-c3nc4cc(C(=O)N5[C@H]6CC[C@@H]5[C@H](N)C6)c(F)c(F)c4n3C)cc3ccc1nc32` [Example 555, (11~{R})-17-[5-[(1~{R}, 2~{R},4~{S})-2-amino-7-azabicyclo [2.2.1]heptane-7-carbonyl]-6,7-difluoro-1-methyl-benzimidazol-2-yl]-8,8,11-trimethyl-1,10,19-triazatricyclo [10.5.2.0^{15,18}]nonadeca-12(19),13,15(18),16-tetraen-9-one] as the compound, how does the IC50 read?
A: The IC50 was 0.056 µM.

Q: For `Cc1cc2c(cc1C(=O)N1[C@H]3CC[C@@H]1[C@H](N)C3)nc(-c1cc3ccc4nc3n1CCCCCCC(C)(C)C(=O)N[C@@H]4C)n2C` [Example 556, (11~{R})-17-[5-[(1~{R}, 2~{R},4~{S})-2-amino-7-azabicyclo[2.2.1]heptane-7-carbonyl]-1,6-dimethyl-benzimidazol-2-yl]-8,8,11-trimethyl-1,10,19-triazatricyclo[10.5.2.0^ {15,18}]nonadeca-12(19),13,15(18),16-tetraen-9-one], which IC50 is on record?
A: Its IC50 is 0.069 µM.

Q: Which IC50 does the source give for `C[C@H]1NC(=O)[C@@H]2C[C@H]2CCCCCn2c(-c3nc4cc(C(=O)N5[C@H]6CC[C@@H]5[C@H](N)C6)c(F)cc4n3C3CC3)cc3ccc1nc32` [Example 557, (2~{R},5~{R},7~{R})-14-[5-[(1~{R},2~{R},4~ {S})-2-amino-7-azabicyclo [2.2.1]heptane-7-carbonyl]-1-cyclopropyl-6-fluoro-benzimidazol-2-yl]-2-methyl-3,13,19-triazatetracyclo[11.5.2.0^ {5,7}.0^{16,20}] icosa-1(19),14,16(20), 17-tetraen-4-one] here?
A: The IC50 was 0.031 µM.
